Consider 17 molecules from US20260193293A1, “PEPTIDES CAPABLE OF INHIBITING PROTEIN-PROTEIN INTERACTIONS AT GABAB1A SUBUNIT AND USES THEREOF” (UNIVERSITY OF COPENHAGEN, priority 2022, published 2026).

The experiment concerns the target Sushi domains (SD1/2) protein. The experiment in a line: Fluorescence polarization (FP) competition assay with AJAP-1probe, calculated Ki. It is filed as binding. The settings on record: read-out: Ki (nM) mean ± SEM. The protocol: Fluorescence polarization (FP). FP assay was employed to determine the binding affinity of peptides in flat bottom black 384-well plates (Corning Life Science) using a Safire2 plate reader (Tecan). All experiments were conducted in 1×PBS (pH 7.4) containing 1% bovine serum albumin (BSA) at rt. The fluorescence polarization values were measured using excitation/emission wavelengths of 530/580 nm. The instrumental Z-factor was adjusted to obtain the maximum fluorescence intensity and the G-factor was calibrated to give an initial millipolarization value of 20 mP. All FP assays including saturation or competition experiments were performed using 25 nM of TAMRA labeled peptides as probes. For saturation assay, the millipolarization values were measured after mixing of probes with 12 serial 1 to 1 diluted concentrations of Sushi domains (SD1/2) protein. All experiments were performed in triplicate and the data were plotted to the one-site binding model using GraphPad Prism 9 to calculate the Kd of probes. […] The experiments were performed at least in triplicate and the data were fitted to the sigmoidal dose response curve using GraphPad Prism 9 to obtain the IC50 of peptides. The Ki values were calculated according to Nikolovska-Coleska et al^310.

[1] abbreviates: Table 4, truncation and elongation scans of APP epitope.
[2] abbreviates: Table 3, SPOT hit validation and previously reported peptides.
[3] abbreviates: Table 11, deep mutational scanning validation variants of AJAP-1WT.

Molecules are shown by their SMILES. Like-named read-outs stand apart in the source and are kept apart here. Residues, ends and D or L forms follow the SMILES beside them.

For `CC(=O)N[C@@H](C)C(=O)N[C@@H](CCC(=O)O)C(=O)N[C@@H](CCC(=O)O)C(=O)N[C@@H](CC(=O)O)C(=O)N[C@@H](CC(=O)O)C(=O)N[C@@H](CO)C(=O)N[C@@H](CC(=O)O)C(=O)N[C@H](C(=O)N[C@@H](Cc1c[nH]c2ccccc12)C(=O)N[C@@H](Cc1c[nH]c2ccccc12)C(=O)NCC(=O)NCC(=O)N[C@@H](C)C(=O)N[C@@H](CC(=O)O)C(=O)N[C@H](C(=O)N[C@@H](CC(=O)O)C(=O)N[C@@H](Cc1ccc(O)cc1)C(=O)N[C@@H](C)C(=O)N[C@@H](CC(=O)O)C(N)=O)[C@@H](C)O)C(C)C`, the Ki under setting [1] was 237 ± 8 nM.

In the case of `CC[C@H](C)[C@H](NC(=O)[C@H](Cc1ccccc1)NC(=O)[C@H](CCC(=O)O)NC(=O)[C@@H](NC(=O)[C@H](CCC(=O)O)NC(C)=O)[C@@H](C)O)C(=O)N[C@@H](C)C(=O)N[C@@H](Cc1c[nH]c2ccccc12)C(=O)NCC(=O)N1CCC[C@H]1C(=O)N[C@H](C(=O)NCC(=O)N[C@@H](CC(=O)O)C(=O)N[C@@H](CCC(=O)O)C(=O)N[C@@H](CC(=O)O)C(=O)N[C@@H](C)C(N)=O)[C@@H](C)O`, under setting [2], the Ki was 39 ± 1 nM.

`CC[C@H](C)[C@H](NC(=O)[C@H](Cc1ccccc1)NC(=O)[C@H](CCC(=O)O)NC(=O)[C@@H](NC(=O)[C@H](CCC(=O)O)NC(C)=O)[C@@H](C)O)C(=O)N[C@@H](C)C(=O)N[C@@H](Cc1c[nH]c2ccccc12)C(=O)NCC(=O)N1CCC[C@H]1C(=O)N[C@H](C(=O)NCC(=O)N[C@@H](CC(=O)O)C(=O)N[C@@H](CCC(=O)O)C(=O)N[C@@H](Cc1c[nH]cn1)C(N)=O)[C@@H](C)O`: the Ki under setting [3] was 39 ± 2 nM.

As for `CC[C@H](C)[C@H](NC(=O)[C@H](Cc1ccccc1)NC(=O)[C@H](CCC(=O)O)NC(=O)[C@@H](NC(=O)[C@H](CCC(=O)O)NC(C)=O)[C@@H](C)O)C(=O)N[C@@H](C)C(=O)N[C@@H](Cc1c[nH]c2ccccc12)C(=O)NCC(=O)N1CCC[C@H]1C(=O)N[C@H](C(=O)NCC(=O)N[C@@H](CC(=O)O)C(=O)N[C@@H](CCC(=O)O)C(=O)N[C@@H](Cc1ccc(O)cc1)C(N)=O)[C@@H](C)O`, under setting [3], the Ki is 39 ± 1 nM.

On to `CC[C@H](C)[C@H](NC(=O)[C@H](Cc1ccccc1)NC(=O)[C@H](CCC(=O)O)NC(=O)[C@@H](NC(=O)[C@H](CCC(=O)O)NC(C)=O)[C@@H](C)O)C(=O)N[C@@H](C)C(=O)N[C@@H](Cc1c[nH]c2ccccc12)C(=O)NCC(=O)N1CCC[C@H]1C(=O)N[C@H](C(=O)NCC(=O)N[C@@H](CC(=O)O)C(=O)N[C@@H](Cc1c[nH]cn1)C(=O)N[C@@H](CC(=O)O)C(N)=O)[C@@H](C)O`, for which, under setting [3], the Ki is 39 ± 2 nM.

In the case of `CC[C@H](C)[C@H](NC(=O)[C@H](Cc1ccccc1)NC(=O)[C@H](CCC(=O)O)NC(=O)[C@@H](NC(=O)[C@H](CCC(=O)O)NC(C)=O)[C@@H](C)O)C(=O)N[C@@H](C)C(=O)N[C@@H](Cc1c[nH]c2ccccc12)C(=O)NCC(=O)N1CCC[C@H]1C(=O)N[C@H](C(=O)NCC(=O)N[C@@H](CC(=O)O)C(=O)N[C@@H](CC(N)=O)C(=O)N[C@@H](CC(=O)O)C(N)=O)[C@@H](C)O`, the Ki under setting [3] was 39 ± 1 nM.

`CC[C@H](C)[C@H](NC(=O)[C@H](Cc1ccccc1)NC(=O)[C@H](CCC(=O)O)NC(=O)[C@@H](NC(=O)[C@H](CCC(=O)O)NC(C)=O)[C@@H](C)O)C(=O)N[C@@H](C)C(=O)N[C@@H](Cc1c[nH]c2ccccc12)C(=O)NCC(=O)N1CCC[C@H]1C(=O)N[C@H](C(=O)NCC(=O)N[C@@H](CC(=O)O)C(=O)N[C@H](C(=O)N[C@@H](CC(=O)O)C(N)=O)C(C)C)[C@@H](C)O`: the Ki under setting [3] was 39 ± 1 nM.

Take `CC[C@H](C)[C@H](NC(=O)[C@H](Cc1ccccc1)NC(=O)[C@H](CCC(=O)O)NC(=O)[C@@H](NC(=O)[C@H](CCC(=O)O)NC(=O)[C@@H](NC(=O)[C@@H](NC(=O)[C@@H]1CCCN1C(=O)[C@H](CCCNC(=N)N)NC(C)=O)[C@@H](C)O)[C@@H](C)O)[C@@H](C)O)C(=O)N[C@@H](C)C(=O)N[C@@H](Cc1c[nH]c2ccccc12)C(=O)NCC(=O)N1CCC[C@H]1C(=O)N[C@H](C(=O)NCC(=O)N[C@@H](CC(=O)O)C(=O)N[C@@H](CCC(=O)O)C(=O)N[C@@H](CC(=O)O)C(N)=O)[C@@H](C)O`: for the setting “Table 5, elongation and truncation scan of AJAP-1 binding epitope”, the Ki was 58 ± 0.4 nM.

Turning to `CC(=O)N[C@@H](C)C(=O)N[C@@H](CC(=O)O)C(=O)N[C@@H](C)C(=O)N[C@@H](CCC(=O)O)C(=O)N[C@@H](CCC(=O)O)C(=O)N[C@@H](CC(=O)O)C(=O)N[C@@H](CC(=O)O)C(=O)N[C@@H](CO)C(=O)N[C@@H](CC(=O)O)C(=O)N[C@H](C(=O)N[C@@H](Cc1c[nH]c2ccccc12)C(=O)N[C@@H](Cc1c[nH]c2ccccc12)C(=O)NCC(=O)NCC(=O)N[C@@H](C)C(N)=O)C(C)C` (Ac-ADAEEDDSDVWWGGA-NH2), the Ki under setting [2] is 1530 ± 46 nM.

Consider `CC(=O)N[C@@H](C)C(=O)N[C@@H](CC(=O)O)C(=O)N[C@@H](C)C(=O)N[C@@H](CCC(=O)O)C(=O)N[C@@H](CCC(=O)O)C(=O)N[C@@H](CC(=O)O)C(=O)N[C@@H](CC(=O)O)C(=O)N[C@@H](CO)C(=O)N[C@@H](CC(=O)O)C(=O)N[C@H](C(=O)N[C@@H](Cc1c[nH]c2ccccc12)C(=O)N[C@@H](Cc1c[nH]c2ccccc12)C(=O)NCC(=O)NCC(=O)N[C@@H](C)C(=O)N[C@@H](CC(=O)O)C(=O)N[C@H](C(=O)N[C@@H](CC(=O)O)C(=O)N[C@@H](Cc1ccc(O)cc1)C(=O)N[C@@H](C)C(=O)N[C@@H](CC(=O)O)C(N)=O)[C@@H](C)O)C(C)C` (Ac-ADAEEDDSDVWWGGADTDYAD-NH2), for which the Ki under setting [1] is 500 ± 16 nM.

With `CC(=O)N[C@@H](C)C(=O)N[C@@H](CC(=O)O)C(=O)N[C@@H](CC(=O)O)C(=O)N[C@@H](CO)C(=O)N[C@@H](CC(=O)O)C(=O)N[C@H](C(=O)N[C@@H](Cc1c[nH]c2ccccc12)C(=O)N[C@@H](Cc1c[nH]c2ccccc12)C(=O)NCC(=O)NCC(=O)N[C@@H](C)C(=O)N[C@@H](CC(=O)O)C(=O)N[C@H](C(=O)N[C@@H](CC(=O)O)C(N)=O)[C@@H](C)O)C(C)C` (Ac-ADDSDVWWGGADTD-NH2), under “Table 7, Ala-, D-amino acids and N-methylation scans of APPWT”, the Ki was 803 ± 5 nM.

In the case of `CC[C@H](C)[C@H](NC(=O)[C@H](C)NC(C)=O)C(=O)N[C@H](C(=O)N[C@@H](Cc1c[nH]c2ccccc12)C(=O)NCC(=O)N1CCC[C@H]1C(=O)N[C@H](C(=O)N[C@H](C(=O)N[C@@H](CO)C(=O)N[C@@H](CCCNC(=N)N)C(=O)N[C@@H](CCC(=O)O)C(=O)N[C@@H](CC(=O)O)C(=O)NCC(N)=O)C(C)C)[C@@H](C)O)C(C)C` (Ac-AIVWGPTVSREDG-NH2), the Ki (Table 6, elongation and truncation scan of PIANP binding epitope) is 5550 ± 11 nM.

In the case of `CC[C@H](C)[C@H](NC(=O)[C@H](C)NC(C)=O)C(=O)N[C@H](C(=O)N[C@@H](Cc1c[nH]c2ccccc12)C(=O)NCC(=O)N1CCC[C@H]1C(=O)N[C@H](C(=O)N[C@H](C(=O)N[C@@H](CO)C(=O)N[C@@H](CCCNC(=N)N)C(=O)N[C@@H](CCC(=O)O)C(=O)N[C@@H](CC(=O)O)C(=O)NCC(=O)NCC(=O)N[C@@H](CC(=O)O)C(N)=O)C(C)C)[C@@H](C)O)C(C)C` (Ac-AIVWGPTVSREDGGD-NH2), under setting [2], the Ki was 637 ± 45 nM.

For `CC(=O)N[C@@H](CC(=O)O)C(=O)N[C@@H](C)C(=O)N[C@@H](CCC(=O)O)C(=O)N[C@@H](CCC(=O)O)C(=O)N[C@@H](CC(=O)O)C(=O)N[C@@H](CC(=O)O)C(=O)N[C@@H](CO)C(=O)N[C@@H](CC(=O)O)C(=O)N[C@H](C(=O)N[C@@H](Cc1c[nH]c2ccccc12)C(=O)N[C@@H](Cc1c[nH]c2ccccc12)C(=O)NCC(=O)NCC(=O)N[C@@H](C)C(=O)N[C@@H](CC(=O)O)C(=O)N[C@H](C(=O)N[C@@H](CC(=O)O)C(=O)N[C@@H](Cc1ccc(O)cc1)C(=O)N[C@@H](C)C(=O)N[C@@H](CC(=O)O)C(N)=O)[C@@H](C)O)C(C)C` (Ac-DAEEDDSDVWWGGADTDYAD-NH2), under setting [1], the Ki is 247 ± 7 nM.

As to `CC(=O)N[C@@H](CC(=O)O)C(=O)N[C@@H](CC(=O)O)C(=O)N[C@@H](CO)C(=O)N[C@@H](CC(=O)O)C(=O)N[C@H](C(=O)N[C@@H](Cc1c[nH]c2ccccc12)C(=O)N[C@@H](Cc1c[nH]c2ccccc12)C(=O)NCC(=O)NCC(N)=O)C(C)C` (Ac-DDSDVWWGG-NH2), the Ki under setting [2] is 2630 ± 97 nM.

On to `CC(=O)N[C@@H](CC(=O)O)C(=O)N[C@@H](CC(=O)O)C(=O)N[C@@H](CO)C(=O)N[C@@H](CC(=O)O)C(=O)N[C@H](C(=O)N[C@@H](Cc1c[nH]c2ccccc12)C(=O)N[C@@H](Cc1c[nH]c2ccccc12)C(=O)NCC(=O)NCC(=O)N[C@@H](C)C(=O)N[C@@H](CC(=O)O)C(=O)N[C@H](C(=O)N[C@@H](CC(=O)O)C(=O)N[C@@H](Cc1ccc(O)cc1)C(=O)N[C@@H](C)C(=O)N[C@@H](CC(=O)O)C(N)=O)[C@@H](C)O)C(C)C` (Ac-DDSDVWWGGADTDYAD-NH2), for which, under setting [1], the Ki is 517 ± 16 nM.

On to `CC(=O)N[C@@H](CC(=O)O)C(=O)N[C@@H](CC(=O)O)C(=O)N[C@@H](CO)C(=O)N[C@@H](CC(=O)O)C(=O)N[C@H](C(=O)N[C@@H](Cc1c[nH]c2ccccc12)C(=O)N[C@@H](Cc1c[nH]c2ccccc12)C(=O)NCC(=O)NCC(=O)N[C@@H](C)C(=O)N[C@@H](CC(=O)O)C(=O)N[C@H](C(=O)N[C@@H](CC(=O)O)C(=O)N[C@@H](Cc1ccc(O)cc1)C(=O)N[C@@H](C)C(=O)N[C@@H](CC(=O)O)C(=O)NCC(N)=O)[C@@H](C)O)C(C)C` (Ac-DDSDVWWGGADTDYADG-NH2), for which the Ki under setting [2] was 687 ± 17 nM.
